# PubChem BioAssay (NCI)
#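 Assay format: 96-well plates, 48-hour exposure. TGI is the concentration that stops growth completely.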
# How the values were obtained:
# Assay in all cases: inhibition of tumour cell growth, NCI panel, 48 h
# 786-0 renal = tested on: 786-0 renal
# A498 renal = tested on: A498 renal
# A549 NSCLC = tested on: A549 NSCLC
# ACHN renal = tested on: ACHN renal
# BT-549 breast = tested on: BT-549 breast
# CAKI-1 renal = tested on: CAKI-1 renal
# CCRF-CEM leukemia = tested on: CCRF-CEM leukemia
# COLO 205 colon = tested on: COLO 205 colon
# DU-145 prostate = tested on: DU-145 prostate
# EKVX NSCLC = tested on: EKVX NSCLC
# HCC-2998 colon = tested on: HCC-2998 colon
# HCT-116 colon = tested on: HCT-116 colon
# HCT-15 colon = tested on: HCT-15 colon
# HL-60(TB) leukemia = tested on: HL-60(TB) leukemia
# HOP-62 NSCLC = tested on: HOP-62 NSCLC
# HOP-92 NSCLC = tested on: HOP-92 NSCLC
# HS 578T breast = tested on: HS 578T breast
# HT29 colon = tested on: HT29 colon
# IGROV1 ovarian = tested on: IGROV1 ovarian
# K-562 leukemia = tested on: K-562 leukemia
# KM12 colon = tested on: KM12 colon
# LOX IMVI melanoma = tested on: LOX IMVI melanoma
# M14 melanoma = tested on: M14 melanoma
# MALME-3M melanoma = tested on: MALME-3M melanoma
# MCF7 breast = tested on: MCF7 breast
# MDA-MB-231 breast = tested on: MDA-MB-231 breast
# MDA-MB-435 = tested on: MDA-MB-435
# MDA-N = tested on: MDA-N
# MOLT-4 leukemia = tested on: MOLT-4 leukemia
# NCI-H226 lung = tested on: NCI-H226 lung
# NCI-H23 lung = tested on: NCI-H23 lung
# NCI-H460 lung = tested on: NCI-H460 lung
# NCI-H522 lung = tested on: NCI-H522 lung
# NCI/ADR-RES ovarian = tested on: NCI/ADR-RES ovarian
# OVCAR-3 ovarian = tested on: OVCAR-3 ovarian
# OVCAR-4 ovarian = tested on: OVCAR-4 ovarian
# OVCAR-5 ovarian = tested on: OVCAR-5 ovarian
# OVCAR-8 ovarian = tested on: OVCAR-8 ovarian
# PC-3 prostate = tested on: PC-3 prostate
# RPMI-8226 leukemia = tested on: RPMI-8226 leukemia
# RXF 393 renal = tested on: RXF 393 renal
# SF-268 CNS = tested on: SF-268 CNS
# SF-295 CNS = tested on: SF-295 CNS
# SF-539 CNS = tested on: SF-539 CNS
# SK-MEL-2 melanoma = tested on: SK-MEL-2 melanoma
# SK-MEL-28 melanoma = tested on: SK-MEL-28 melanoma
# SK-MEL-5 melanoma = tested on: SK-MEL-5 melanoma
# SK-OV-3 ovarian = tested on: SK-OV-3 ovarian
# SN12C renal = tested on: SN12C renal
# SNB-19 CNS = tested on: SNB-19 CNS
# SNB-75 CNS = tested on: SNB-75 CNS
# SR leukemia = tested on: SR leukemia
# SW-620 colon = tested on: SW-620 colon
# T-47D breast = tested on: T-47D breast
# TK-10 renal = tested on: TK-10 renal
# U251 CNS = tested on: U251 CNS
# UACC-257 melanoma = tested on: UACC-257 melanoma
# UACC-62 melanoma = tested on: UACC-62 melanoma
# UO-31 renal = tested on: UO-31 renal
compound,measurement,setting,value
CCOC(=O)C1CC(C(=O)c2ccccc2)N2c3ccccc3-c3ccccc3C12 (stereo not drawn),TGI,786-0 renal,> 100 µM
same,TGI,A498 renal,> 100 µM
same,TGI,A549 NSCLC,> 100 µM
same,TGI,ACHN renal,> 100 µM
same,TGI,BT-549 breast,> 100 µM
same,TGI,CAKI-1 renal,> 100 µM
same,TGI,CCRF-CEM leukemia,> 100 µM
same,TGI,COLO 205 colon,> 100 µM
same,TGI,DU-145 prostate,> 100 µM
same,TGI,EKVX NSCLC,> 100 µM
same,TGI,HCC-2998 colon,> 100 µM
same,TGI,HCT-116 colon,> 100 µM
same,TGI,HCT-15 colon,> 100 µM
same,TGI,HL-60(TB) leukemia,29.7 µM
same,TGI,HOP-62 NSCLC,> 100 µM
same,TGI,HOP-92 NSCLC,> 100 µM
same,TGI,HS 578T breast,97.2 µM
same,TGI,HT29 colon,> 100 µM
same,TGI,IGROV1 ovarian,> 100 µM
same,TGI,K-562 leukemia,> 100 µM
same,TGI,KM12 colon,> 100 µM
same,TGI,LOX IMVI melanoma,> 100 µM
same,TGI,M14 melanoma,74.2 µM
same,TGI,MALME-3M melanoma,> 100 µM
same,TGI,MCF7 breast,> 100 µM
same,TGI,MDA-MB-231 breast,> 100 µM
same,TGI,MDA-MB-435,> 100 µM
same,TGI,MDA-N,> 100 µM
same,TGI,MOLT-4 leukemia,> 100 µM
same,TGI,NCI-H226 lung,> 100 µM
same,TGI,NCI-H23 lung,> 100 µM
same,TGI,NCI-H460 lung,> 100 µM
same,TGI,NCI-H522 lung,> 100 µM
same,TGI,NCI/ADR-RES ovarian,> 100 µM
same,TGI,OVCAR-3 ovarian,> 100 µM
same,TGI,OVCAR-4 ovarian,> 100 µM
same,TGI,OVCAR-5 ovarian,> 100 µM
same,TGI,OVCAR-8 ovarian,> 100 µM
same,TGI,PC-3 prostate,> 100 µM
same,TGI,RPMI-8226 leukemia,40.8 µM
same,TGI,RXF 393 renal,> 100 µM
same,TGI,SF-268 CNS,> 100 µM
same,TGI,SF-295 CNS,> 100 µM
same,TGI,SF-539 CNS,> 100 µM
same,TGI,SK-MEL-2 melanoma,> 100 µM
same,TGI,SK-MEL-28 melanoma,> 100 µM
same,TGI,SK-MEL-5 melanoma,> 100 µM
same,TGI,SK-OV-3 ovarian,> 100 µM
same,TGI,SN12C renal,> 100 µM
same,TGI,SNB-19 CNS,> 100 µM
same,TGI,SNB-75 CNS,> 100 µM
same,TGI,SR leukemia,84.1 µM
same,TGI,SW-620 colon,> 100 µM
same,TGI,T-47D breast,> 100 µM
same,TGI,TK-10 renal,> 100 µM
same,TGI,U251 CNS,> 100 µM
same,TGI,UACC-257 melanoma,> 100 µM
same,TGI,UACC-62 melanoma,> 100 µM
same,TGI,UO-31 renal,> 100 µM
NNC(=O)Nc1nc2ccc(NN)cc2[nH]1,TGI,786-0 renal,> 100 µM
same,TGI,A498 renal,77.3 µM
same,TGI,A549 NSCLC,> 100 µM
same,TGI,ACHN renal,> 100 µM
same,TGI,BT-549 breast,84.1 µM
same,TGI,CAKI-1 renal,> 100 µM
same,TGI,CCRF-CEM leukemia,41.7 µM
same,TGI,COLO 205 colon,37.3 µM
same,TGI,DU-145 prostate,> 100 µM
same,TGI,EKVX NSCLC,> 100 µM
same,TGI,HCC-2998 colon,41.4 µM
same,TGI,HCT-116 colon,> 100 µM
same,TGI,HCT-15 colon,> 100 µM
same,TGI,HL-60(TB) leukemia,32.4 µM
same,TGI,HOP-62 NSCLC,> 100 µM
same,TGI,HOP-92 NSCLC,57.3 µM
same,TGI,HS 578T breast,> 100 µM
same,TGI,HT29 colon,> 100 µM
same,TGI,IGROV1 ovarian,> 100 µM
same,TGI,K-562 leukemia,42.1 µM
same,TGI,KM12 colon,48.7 µM
same,TGI,LOX IMVI melanoma,> 100 µM
same,TGI,M14 melanoma,84.4 µM
same,TGI,MALME-3M melanoma,> 100 µM
same,TGI,MCF7 breast,82.5 µM
same,TGI,MDA-MB-231 breast,> 100 µM
same,TGI,MDA-MB-435,54 µM
same,TGI,MDA-N,> 100 µM
same,TGI,MOLT-4 leukemia,32.3 µM
same,TGI,NCI-H226 lung,89.8 µM
same,TGI,NCI-H23 lung,> 100 µM
same,TGI,NCI-H460 lung,> 100 µM
same,TGI,NCI-H522 lung,92.6 µM
same,TGI,NCI/ADR-RES ovarian,> 100 µM
same,TGI,OVCAR-3 ovarian,> 100 µM
same,TGI,OVCAR-4 ovarian,> 100 µM
same,TGI,OVCAR-5 ovarian,> 100 µM
same,TGI,OVCAR-8 ovarian,> 100 µM
same,TGI,PC-3 prostate,> 100 µM
same,TGI,RPMI-8226 leukemia,26.7 µM
same,TGI,RXF 393 renal,97.2 µM
same,TGI,SF-268 CNS,> 100 µM
same,TGI,SF-295 CNS,> 100 µM
same,TGI,SF-539 CNS,28.5 µM
same,TGI,SK-MEL-2 melanoma,> 100 µM
same,TGI,SK-MEL-28 melanoma,56.8 µM
same,TGI,SK-MEL-5 melanoma,51.9 µM
same,TGI,SK-OV-3 ovarian,> 100 µM
same,TGI,SN12C renal,> 100 µM
same,TGI,SNB-19 CNS,> 100 µM
same,TGI,SNB-75 CNS,84.2 µM
same,TGI,SR leukemia,43.2 µM
same,TGI,SW-620 colon,67.4 µM
same,TGI,T-47D breast,> 100 µM
same,TGI,TK-10 renal,82.6 µM
same,TGI,U251 CNS,> 100 µM
same,TGI,UACC-257 melanoma,88.1 µM
same,TGI,UACC-62 melanoma,56.4 µM
same,TGI,UO-31 renal,> 100 µM
